# “And” between values parts separate entries of the source, which are not always exact repeats. Identical values can stand only once. “Also recorded” adds a separate entry of the source.
# What was measured:
# NCCIT cells [1] = test: Western blotting of OCT4A after RA-induced differentiation and ganciclovir; type: cell-based, human; settings: ganciclovir added to RA-induced NCCIT cells
# Method: (§1) One aliquot of cells was maintained in differentiation medium containing 2 μmol/L ganciclovir for 7 days (for in vitro immuno-analysis) or 14 days (for in vivo tumor formation). As a negative control, counterpart cells were grown in differentiation medium containing 0.1% DMSO in which ganciclovir is dissolved.
# (§2) Cells were lysed in RIPA buffer with protease inhibitors (0.5 mmol/L PMSF and 1×Complete Protease Inhibitor Cocktail from Roche) for SDS-PAGE and Western blotting analyses. Monoclonal anti-β-actin antibody was from Sigma and used at 1:5000 (St Louis, Mo.). Rabbit anti-HSV thymidine kinase antiserum was obtained from Dr. William Summers of Yale University (1:5000); anti-OCT4A antibody was from Santa Cruz Biotechnology (Santa Cruz, Calif.) and used at 1:1000. Horseradish peroxidase (HRP)-conjugated secondary antibodies (1:1000) were purchased from Pierce (Rockford, Ill.). Chemiluminescent reagents from Pierce were used to visualize the protein signals on an LAS-3000 imaging system (Fujifilm). The Integrated Density function (Image J software) was used to quantify the expression of individual proteins after normalized by β-actin.
# NCCIT (pSuicide) cells [2] = test: as above; type: cell-based, human; settings: RA-induced NCCIT (pSuicide) cells treated with ganciclovir
# Method: as §1, §2
# HeLa (pSuicide) cells = test: Cell survival under ganciclovir treatment; type: cell-based
# Method: (§3) NCCIT and HeLa cells with and without pSuicide episomal DNA were treated with and without 2 μmol/L ganciclovir. Cell numbers and morphology were compared 7 days after treatment.
# NCCIT cells [3] = test: OCT4 immunofluorescence of RA-differentiated cells with ganciclovir
# [4] = test system: RA-differentiated NCCIT(pSuicide) cells; test: Tumor development from RA-differentiated NCCIT(pSuicide) cells with or without in vitro ganciclovir selection; type: in vivo, SCID mice
# Method: as §1
# Trypsinized cells washed in PBS were resuspended in ice-cold PBS containing 30% BD Matrigel (BD Biosciences), drawn into an ice-cold 1-mL syringe, and kept on ice for subcutaneous injection into 8-˜12-week-old female immunodeficient SCID mice (Charles River Laboratories, Wilmington, Mass.) as previously described (Prokhorova et al., 2009, Stem Cells Dev 2009; 18:47-54). For undifferentiated NCCIT and NCCIT (pSuicide) cells, 1.5×10^6 cells in 100 μl volume were injected for each mouse. For differentiated NCCIT (pSuicide) cells, 3×10^6 cells were injected.
# (§4) When tumors reached about 8 mm in size, ganciclovir (50 mg/kg body weight) was delivered intraperitoneally daily for 2-3 weeks. Each tumor was regarded as a prolate spheroid and the greatest longitudinal diameter (L) and greatest transverse diameter (B) were monitored with a caliper every 2 days by the same person. The two dimensions were to lie perpendicular to each other in a plane tangential to the body wall. Tumor size was estimated from the formula V=½(L×B^2) as previously described (Euhus et al., 1986, J Surg Oncol 31:229-34). The size of tumors formed by NCCIT and NCCIT (pSuicide) cells was compared by analysis of variation (ANOVA), setting as 1 the volume on the day ganciclovir was first delivered.
# NCCIT (pSuicide) cells [5] = test: OCT4 immunofluorescence of RA-differentiated cells with ganciclovir; type: cell-based, human
# Method: as §1
# Briefly, differentiated NCCIT cells growing on chamber slides were fixed in 4% PFA for 15 min at room temperature and permeabilized in 0.2% Triton X-100/PBS for 10 min. After blocking with 10% horse serum, cells were incubated with 3%0/horse serum diluted (1:50) OCT4 antibody (Santa Cruz Biotechnology) for 1 h at room temperature, followed by three washes in PBS-T (0.1% Tween 20 in phosphate-buffered saline). […] Images were captured under a fluorescent microscope.
# NCCIT cells [6] = test: Flow cytometry of OCT4-expressing cells after RA and ganciclovir; type: cell-based, human
# Method: as §1
# (§5) Cells were trypsinized and about 5×10^5 cells were fixed in 2% paraformaldehyde for 10 min at room temperature. Cells were pelleted and permeabilized by resuspension with vigorous vortexing in 500 μl iced-cold methanol and incubated at 4° C. for at least 10 min. After 3 washes with staining buffer (PBS with 1% BSA), the cells were resuspended in 100 μl OCT4 antibody (Santa Cruz Biotechnology), diluted to 1:100 with staining buffer, and incubated for 30 min at 4° C. The cells were washed 3 times with staining buffer and incubated in 1:300 diluted Cy5-conjugated goat anti-mouse Fab for 30 min at 4° C. The cells were assessed for OCT4 expression using a BD FACSCalibur cytometer (BD Biosciences) with CellQuest software.
# NCCIT (pSuicide) cells [7] = test: as above; type: cell-based, human
# Method: as §1, §5
# tumors from NCCIT cells = test: In vivo ganciclovir treatment of tumors; parameters: species or system SCID mice
# Method: as §4, with “Trypsinized cells washed in PBS were resuspended in ice-cold PBS containing 30% BD Matrigel (BD Biosciences), drawn into an ice-cold 1-mL syringe, and kept on ice for subcutaneous injection into 8-˜12-week-old female immunodeficient SCID mice (Charles River Laboratories, Wilmington, Mass.) as previously described (Prokhorova et al., 2009, Stem Cells Dev 2009; 18:47-54). For undifferentiated NCCIT and NCCIT (pSuicide) cells, 1.5×10^6 cells in 100 μl volume were injected for each mouse. For differentiated NCCIT (pSuicide) cells, 3×10^6 cells were injected. When” for “When”
# [8] = test system: tumors from NCCIT (pSuicide) cells; test: In vivo ganciclovir treatment of tumors; parameters: species or system SCID mice
# Method: as §4, with “Trypsinized cells washed in PBS were resuspended in ice-cold PBS containing 30% BD Matrigel (BD Biosciences), drawn into an ice-cold 1-mL syringe, and kept on ice for subcutaneous injection into 8-˜12-week-old female immunodeficient SCID mice (Charles River Laboratories, Wilmington, Mass.) as previously described (Prokhorova et al., 2009, Stem Cells Dev 2009; 18:47-54). For undifferentiated NCCIT and NCCIT (pSuicide) cells, 1.5×10^6 cells in 100 μl volume were injected for each mouse. For differentiated NCCIT (pSuicide) cells, 3×10^6 cells were injected. When” for “When”
# NCCIT (pSuicide) cells [9] = test: Cell survival under ganciclovir treatment; type: cell-based, human
# Method: as §3
# [10] = 2 μmol/L ganciclovir for 7 days
# [11] = 3 × 10^6 cells/mouse, SCID mice
compound,measurement,setting,value
Nc1nc(O)c2ncn(COC(CO)CO)c2n1 [ganciclovir],OCT4A expression,NCCIT cells [1],did not reduce
same,OCT4A expression,NCCIT (pSuicide) cells [2],undetectable
same,cell killing,HeLa (pSuicide) cells; [10],not
same,proliferation,HeLa (pSuicide) cells; ganciclovir treatment,not affected and not
same,elimination of OCT4A-positive cells,NCCIT cells [3]; 2 μmol/L ganciclovir for 7 days after 10 days RA,did not eliminate
same,mice that developed tumors of mice injected with ganciclovir-treated cells,"[4]; cells treated with ganciclovir for 14 days before injection, 3 months after injection",1 of 12 and 1/14
same,elimination of OCT4A-positive cells,"NCCIT (pSuicide) cells [5]; 2 μmol/L ganciclovir for 7 days after 10 days RA, NCCIT (pSuicide) cells",eliminated
same,cells with nuclear staining of OCT4A antibody,NCCIT (pSuicide) cells [5]; 1670 immunostained ganciclovir-treated NCCIT (pSuicide) cells examined,none
same,percentage of OCT4A-positive cells,NCCIT cells [6]; RA-treated NCCIT cells after ganciclovir treatment,30.18%±2.46%
same,percentage of OCT4A-positive cells,NCCIT (pSuicide) cells [7]; RA-treated NCCIT (pSuicide) cells after ganciclovir treatment,2.27%±0.12%
same,Tumors responded to ganciclovir,"tumors from NCCIT cells; NCCIT-derived tumors, ganciclovir 50 mg/kg intraperitoneally daily",0/7
same,tumor growth,"tumors from NCCIT cells; tumors from NCCIT cells, ganciclovir 50 mg/kg i.p. daily for two weeks",continued to grow and not
same,Tumors responded to ganciclovir,"[8]; NCCIT(pSuicide)-derived tumors, ganciclovir 50 mg/kg intraperitoneally daily",4/4
same,tumor growth,"[8]; tumors from NCCIT (pSuicide) cells, ganciclovir 50 mg/kg i.p. daily for two weeks",stopped growing; also recorded: inhibited growth
same,tumor growth,[8]; two mice with tumors from differentiated NCCIT (pSuicide) cells treated with ganciclovir,inhibited
same,cell killing,NCCIT (pSuicide) cells [9]; [10],killed
same,proliferation,NCCIT (pSuicide) cells [9]; ganciclovir treatment,affected
"CC1=C(/C=C/C(C)=C/C=C/C(C)=C/C(=O)O)C(C)(C)CCC1 [RA, retinoic acid]",cells induced to differentiate (OCT4A-negative),NCCIT cells [3]; 20 μmol/L retinoic acid,about 50%
same,No. mice with tumor 0-3 Months postinjection,[4]; [11],6
same,No. mice with tumor 3-5 Months postinjection,[4]; [11],1
same,No. mice with tumor Total,[4]; [11],7
same,cells induced to differentiate (OCT4A-negative),"NCCIT (pSuicide) cells [5]; 20 μmol/L retinoic acid, NCCIT (pSuicide) cells",about 50%
same,OCT4A-positive cells,"NCCIT cells [6]; after RA induction, NCCIT cells",40-60%
same,percentage of OCT4A-positive cells,NCCIT (pSuicide) cells [7]; RA-treated NCCIT (pSuicide) cells before ganciclovir treatment,59.10%±0.5%
same,OCT4A-positive cells,"NCCIT (pSuicide) cells [7]; after RA induction, NCCIT (pSuicide) cells",40-60%
